Measured values: patent publication US6841567B1, “Cyclic substituted fused pyrrolocarbazoles and isoindolones” (Cephalon, Inc., priority 1999, dated 2005)

How the values were obtained:
[1] = target: T1, VEGF receptor (human flk-1, KDR, VEGFR2) kinase domain (Homo sapiens, UniProt P35968); experiment: Inhibition of vascular endothelial growth factor receptor kinase activity (ELISA); type: biochemical; conditions: for inhibition at 0.3 µM: 300 nM compound, read-out: VEGF receptor kinase activity % Inh. @ 300 nM (values in parentheses); for IC50: 40 μM ATP
T1 construct: VEGF receptor (human flk-1, KDR, VEGFR2) kinase domain; made in house; host or cells: baculovirus expression system
Method: Cyclic substituted fused pyrrolocarbazole and isoindolone compounds were examined for their inhibitory effects on the kinase activity of baculovirus-expressed VEGF receptor (human flk-1, KDR, VEGFR2) kinase domain using the procedure described for the trkA kinase ELISA assay described above. The kinase reaction mixture, consisting of 50 mM Hepes, pH 7.4, 40 μM ATP, 10 mM MnCl2, 0.1% BSA, 2% DMSO, and various concentrations of inhibitor, was transferred to PLC-γ/GST-coated plates. VEGFR kinase was added and the reaction was allowed to proceed for 15 min. at 37 C. Detection of phosphorylated product was accomplished by addition of antII-phosphotyrosine antibody (UBI). A secondary enzymeconjugated antibody was delivered to capture the antibody-phosphorylated PLC-γ/GST complex. The activity of the bound enzyme was measured via an amplified detection system (Gibco-BRL). Inhibition data were analyzed using the sigmoidal dose-response (variable slope) equation in GraphPad Prism.

[2] = target: T2, PDGFβ receptor kinase domain (recombinant human PDGFRβ) (Homo sapiens, UniProt P09619); experiment: Inhibition of platelet derived growth factor receptor kinase activity (ELISA); type: biochemical; conditions: 300 nM compound; read-out: PDGFRβ % inh @ 300 nM (values in parentheses)
T2 construct: kinase activity of baculovirus-expressed PDGFβ receptor kinase domain; made in house; host or cells: baculovirus expression system
Method: Cyclic substituted fused pyrrolocarbazole and isoindolone compounds were examined for their inhibitory effects on the kinase activity of baculovirus-expressed PDGFβ receptor kinase domain using the trkA kinase ELISA described above. Assays were performed in substrate (PLC-γ/GST)-coated 96-well microtiter plates. Each 100-μl reaction mixture contained 50 mM HEPES, pH 7.4, 20 μM ATP, 10 mM MnCl2, 0.1% BSA, 2% DMSO, and various concentrations of inhibitor. The reaction was initiated by addition of prephosphorylated recombinant human enzyme (10 ng/ml PDGFRβ) and allowed to proceed for 15 minutes at 37° C. The prephosphorylated enzyme was prepared prior to use by incubation of the kinase in buffer containing 20 μM ATP and 10 mM MnCl2 for 1 hour at 4° C. Detection of phosphorylated product was done by adding horseradish peroxidase (HRP)-conjugated antII-phosphotyrosine antibody (UBI). The HRP substrate solution containing 3,3′-5,5′-tetramethylbenzidine and hydrogen peroxide was later added and the plates were incubated for 10 minutes at room temperature. The reaction was quenched with acid and the resulting absorbance was read at 450 nm using a Microplate Bio-kinetics Reader (Bio-Tek Instrument EL 312e). Inhibition data were analyzed using the sigmoidal dose-response (variable slope) equation in GraphPad Prism.

[3] = target: T3, baculovirus-expressed human trkA cytoplasmic domain (Homo sapiens, UniProt P04629); experiment: Inhibition of trkA tyrosine kinase activity (ELISA-based assay); type: biochemical; conditions: for IC50: 40 μM ATP; for inhibition at 0.3 µM / trkA kinase activity % Inh. @ 300 nM (values in parentheses): 300 nM compound; for inhibition at 0.3 µM: read-out: trkA kinase activity % Inh. @ 300 nM (values in parentheses)
T3 construct: baculovirus-expressed human trkA cytoplasmic domain; made in house; host or cells: baculovirus expression system
Method: Selected cyclic substituted fused pyrrolocarbazole and isoindolone compounds were tested for their ability to inhibit the kinase activity of baculovirus-expressed human trkA cytoplasmic domain using an ELISA-based assay as previously described (Angeles et al., Anal. Biochem. 236: 49-55, 1996). Briefly, the 96-well microtiter plate was coated with substrate solution (recombinant human phospholipase C-γ1/glutathione S-transferase fusion protein (Rotin et al., EMBO J., 11: 559-567, 1992). Inhibition studies were performed in 100 μl assay mixtures containing 50 mM Hepes, pH 7.4, 40 μM ATP, 10 mM MnCl2, 0.1% BSA, 2% DMSO, and various concentrations of inhibitor. The reaction was initiated by addition of trkA kinase and allowed to proceed for 15 minutes at 37° C. An antibody to phosphotyrosine (UBI) was then added, followed by a secondary enzyme-conjugated antibody, alkaline phosphatase-labelled goat antII-mouse IgG (Bio-Rad). The activity of the bound enzyme was measured via an amplified detection system (Gibco-BRL). Inhibition data were analyzed using the sigimoidal dose-response (variable slope) equation in GraphPad Prism.

[4] = target: protein kinase C (UBI; mixed isozymes of a, b, g); experiment: Inhibition of protein kinase C activity (Millipore Multiscreen TCA in-plate assay); type: biochemical; conditions: for Protein kinase C activity, values in parentheses: concentration not given
Method: Protein kinase C activity was assessed using the Millipore Multiscreen TCA “in-plate” assay as described in Pitt, A. M. and Lee, C. (J. Biomol. Screening, 1: 47-51, 1996). Assays were performed in 96-well Multiscreen-DP plates (Millipore). Each […] assay mixture contained 20 mM Hepes, pH 7.4, 10 mM MgCl2, 2.5 mM EGTA, 2.5 mM CaCl2, […] phosphatidyl serine, […] diolein, […] histone H-1 (Fluka), […] [γ-^32P]ATP, 1.5 ng protein kinase C (UBI; mixed isozymes of a, b, g), 0.1% BSA, 2% DMSO, and test cyclic substituted fused pyrrolocarbazole compound. The reaction was allowed to proceed for 10 min at 37° C., then quenched by adding ice cold 50% trichloroacetic acid. The plates were allowed to equilibrate for 30 min at 4° C., then washed with ice cold 25% TCA. Scintillation cocktail was added to the plates, and the radioactivity was determined using Wallac MicroBeta 1450 PLUS scintillation counter. The IC50 values were calculated by fitting the data to the sigmoidal dose-response (variable slope) equation in GraphPad Prism.

[5] = target: T4, trkA (NIH3T3 cells transfected with trkA) (Homo sapiens, UniProt P04629); experiment: Inhibition of NGF-stimulated trk phosphorylation in a whole cell preparation; type: cell-based; design: key to Cell Score @ 100 nM (percent decrease in trk protein band): 0=no decrease; 1=1-25%; 2=26-49%; 3=50-75%; 4=76-100%; conditions: NGF 10 ng/ml; for Cell Score @ 100 nM (percent decrease in trk protein band): 100 nM compound; for Cell Score @ 1 uM (percent decrease in trk protein band): 1 uM compound
T4 construct: expressed in transfected cells; host or cells: NIH3T3
Method: NIH3T3 cells transfected with trkA were grown in 100 mm dishes. Subconfluent cells were serum-starved by replacing media with serum-free 0.05% BSA-DMEM containing compound (100 nM and 1 μM) or DMSO (added to controls) for one hour at 37° C. NGF (Harlan/Bioproducts for Science) was then added to the cells at a concentration of 10 ng/ml for 5 minutes. Cells were lysed in buffer containing detergent and protease inhibitors. Clarified cell lysates were normalized to protein using BCA method and immunoprecipitated with antII-trk antibody. Polyclonal antII-trk antibody was prepared against a peptide corresponding to the 14 amino acids at the carboxy terminus of trk (Martin-Zanca et al., Mol. Cell. Biol. 9: 24-33, 1989). The immune complexes were collected on Protein A Sepharose beads (Sigma Chem. Co., St. Lois, Mo.), separated by SDS polyacrylamide gel electrophoresis (SDS-PAGE), and transferred to a polyvinylidene difluoride (PVDF) membrane. The membrane was immunoblotted with antII-phosphotyrosine antibody (UBI), followed by incubation with horseradish peroxidase coupled goat antII-mouse IgG (Bio-Rad Laboratories, Hercules, Calif.). Phosphorylated proteins were visualized using ECL (Arnersham Life Science, Inc., Arlington Heights, Ill.). The area of the trk protein band was measured and compared to NGF-stimulated control. The inhibition scoring system used, based on percent decrease in trk protein band, was as follows: 0=no decrease; 1=1-25%; 2=26-49%; 3=50-75%; 4=76-100%.

T3 sequence (P04629 440-796 limits assumed): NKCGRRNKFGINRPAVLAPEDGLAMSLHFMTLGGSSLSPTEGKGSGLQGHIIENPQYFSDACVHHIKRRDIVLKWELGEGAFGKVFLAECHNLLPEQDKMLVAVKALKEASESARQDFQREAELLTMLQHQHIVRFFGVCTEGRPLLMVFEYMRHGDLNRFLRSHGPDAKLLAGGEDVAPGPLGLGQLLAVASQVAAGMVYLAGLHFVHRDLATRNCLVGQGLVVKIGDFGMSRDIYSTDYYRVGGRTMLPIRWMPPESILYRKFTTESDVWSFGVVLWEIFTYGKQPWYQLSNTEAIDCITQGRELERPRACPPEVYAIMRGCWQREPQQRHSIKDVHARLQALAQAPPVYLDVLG
T1 sequence (P35968 834-1162 limits assumed): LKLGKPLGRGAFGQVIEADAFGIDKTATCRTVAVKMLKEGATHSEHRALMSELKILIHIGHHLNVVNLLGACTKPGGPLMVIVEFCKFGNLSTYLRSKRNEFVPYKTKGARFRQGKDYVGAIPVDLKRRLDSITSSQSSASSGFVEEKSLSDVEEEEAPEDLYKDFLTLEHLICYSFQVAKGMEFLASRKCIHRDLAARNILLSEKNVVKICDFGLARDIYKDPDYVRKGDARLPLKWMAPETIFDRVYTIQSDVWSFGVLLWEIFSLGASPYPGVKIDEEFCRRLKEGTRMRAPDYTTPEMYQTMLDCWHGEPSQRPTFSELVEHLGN
T4 sequence (P04629 33-796, species assumed): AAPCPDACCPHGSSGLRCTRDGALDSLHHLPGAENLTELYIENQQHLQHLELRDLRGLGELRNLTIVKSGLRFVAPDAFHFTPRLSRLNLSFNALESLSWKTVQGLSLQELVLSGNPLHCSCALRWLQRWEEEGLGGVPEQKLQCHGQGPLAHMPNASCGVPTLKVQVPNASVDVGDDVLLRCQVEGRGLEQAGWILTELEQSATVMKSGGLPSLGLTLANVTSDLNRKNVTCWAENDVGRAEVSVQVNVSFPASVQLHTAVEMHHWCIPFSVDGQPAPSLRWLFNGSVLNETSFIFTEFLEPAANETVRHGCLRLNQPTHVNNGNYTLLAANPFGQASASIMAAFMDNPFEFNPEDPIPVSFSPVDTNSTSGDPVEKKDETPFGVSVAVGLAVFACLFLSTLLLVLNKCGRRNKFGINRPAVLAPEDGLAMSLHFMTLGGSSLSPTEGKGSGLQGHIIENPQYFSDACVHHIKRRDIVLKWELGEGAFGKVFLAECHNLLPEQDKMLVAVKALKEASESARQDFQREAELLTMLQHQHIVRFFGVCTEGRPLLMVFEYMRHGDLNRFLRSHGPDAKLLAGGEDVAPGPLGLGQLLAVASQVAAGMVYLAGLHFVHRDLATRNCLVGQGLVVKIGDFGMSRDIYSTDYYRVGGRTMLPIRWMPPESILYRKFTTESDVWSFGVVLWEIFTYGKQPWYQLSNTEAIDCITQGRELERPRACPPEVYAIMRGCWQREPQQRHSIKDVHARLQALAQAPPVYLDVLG
T2 sequence (P09619 600-962 limits assumed): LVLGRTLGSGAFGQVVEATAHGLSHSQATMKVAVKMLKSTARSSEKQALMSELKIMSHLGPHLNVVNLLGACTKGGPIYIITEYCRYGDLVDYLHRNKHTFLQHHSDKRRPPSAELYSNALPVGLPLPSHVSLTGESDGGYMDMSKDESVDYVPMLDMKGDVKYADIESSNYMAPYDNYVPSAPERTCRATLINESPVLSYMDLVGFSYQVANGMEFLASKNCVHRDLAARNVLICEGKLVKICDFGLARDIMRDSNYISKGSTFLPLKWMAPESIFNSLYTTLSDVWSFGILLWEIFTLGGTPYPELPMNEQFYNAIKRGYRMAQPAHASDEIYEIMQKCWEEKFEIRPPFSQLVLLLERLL

| IC50 [3] | IC50 [4] | Cell Score @ 100 nM (percent decrease in trk protein band) [5] | Cell Score @ 1 uM (percent decrease in trk protein band) [5] | SMILES | also measured |
| --- | --- | --- | --- | --- | --- |
| 555 nM |  |  |  | COC(=O)[C@H]1CSC(CCn2c3ccccc3c3c4c(c5c(c32)Cc2ccccc2-5)C(=O)NC4)N1 (stereo partly drawn) [II-67] | inhibition at 0.3 µM [1]: 65%; inhibition at 0.3 µM [2]: 23% |
| 405 nM | > 10000 nM | 2 (2=26-49%) | 2 (2=26-49%) | O=C1NCc2c1c1c(c3[nH]c4ccccc4c23)C(C2CCC(O)O2)c2ccccc2-1 (single isomer, unassigned) [II-38] | IC50 [1]: 5100 nM |
| 153 nM | 1040 nM |  |  | O=C1CCC(CO)(C2c3ccccc3-c3c4c(c5c([nH]c6ccccc65)c32)CNC4=O)O1 (stereo not drawn) [II-33] |  |
| 182 nM | 1570 nM |  |  | CN1CCC(O)(C2c3ccccc3-c3c4c(c5c([nH]c6ccccc65)c32)CNC4=O)CC1 (stereo not drawn) [II-10] |  |
| 78 nM | > 10000 nM | 0 | 3 (3=50-75%) | O=C1NCc2c1c1c(c3[nH]c4ccccc4c23)C(C2(CO)CCCO2)c2ccccc2-1 (single isomer, unassigned) [II-35] | inhibition at 0.3 µM [1]: 55% |
|  | > 10000 nM |  |  | O=C1NCc2c1c1c(c3[nH]c4ccccc4c23)C(C2(O)CCc3ccccc3C2)c2ccccc2-1 (stereo not drawn) [II-15] | inhibition at 0.3 µM [3]: 26% |
| 27 nM |  | 2 (2=26-49%) | 3 (3=50-75%) | COCCOC(=O)c1ccc2[nH]c3c4c(c5c(c3c2c1)CNC5=O)-c1ccccc1C4C1CCC(OCCOC)O1 (stereo not drawn) [II-52] | inhibition at 0.3 µM [2]: 45% |
| 45 nM | 2070 nM | 2 (2=26-49%) | 4 (4=76-100%) | CC1(C2c3ccccc3-c3c4c(c5c([nH]c6ccccc65)c32)CNC4=O)CC(O)(CO)CO1 (stereo not drawn) [II-26] | inhibition at 0.3 µM [1]: 48% |
| 15 nM | > 10000 nM | 2 (2=26-49%) | 4 (4=76-100%) | O=C1NCc2c1c1c(c3[nH]c4ccccc4c23)C(C2(CO)CCCO2)c2ccccc2-1 (stereo not drawn) [II-21] |  |
| 20 nM | > 10000 nM | 1 (1=1-25%) | 4 (4=76-100%) | O=C1NCc2c1c1c(c3[nH]c4ccccc4c23)C(C2(CO)CCCO2)c2ccccc2-1 (single isomer, unassigned) [II-36] | IC50 [1]: 846 nM |
|  |  |  |  | O=C1NCc2c1c1c(c3c2c2ccccc2n3CC2CCCOC2)Cc2ccccc2-1 (racemic) [II-63] | Protein kinase C activity, values in parentheses [4]: (28); trkA kinase activity % Inh. @ 300 nM (values in parentheses) [3]: (28) % |
| 16 nM | 2080 nM | 0 | 4 (4=76-100%) | O=C1NCc2c1c1c(c3[nH]c4ccccc4c23)C(C2(C(O)CO)CCCO2)c2ccccc2-1 (stereo not drawn) [II-29] |  |
| 19 nM | 7120 nM | 1 (1=1-25%) | 2 (2=26-49%) | O=C1NCc2c1c1c(c3[nH]c4ccccc4c23)C(C2CCCO2)c2ccccc2-1 (stereo not drawn) [II-07] |  |
|  | > 10000 nM |  |  | O=C1NCc2c1c1c(c3[nH]c4ccccc4c23)C(C2(O)CCSCC2)c2ccccc2-1 (stereo not drawn) [II-14] | inhibition at 0.3 µM [3]: 32% |
| 72 nM | 4070 nM |  |  | O=C1NCc2c1c1c(c3[nH]c4ccccc4c23)C(C2(O)CCOCC2)c2ccccc2-1 (stereo not drawn) [II-03] |  |
|  |  |  |  | O=C1NCc2c1c1c(c3c2c2ccccc2n3CC2CCCCO2)Cc2ccccc2-1 (racemic) [II-62] | Protein kinase C activity, values in parentheses [4]: (27); trkA kinase activity % Inh. @ 300 nM (values in parentheses) [3]: (27) % |
| 64 nM | 7500 nM |  |  | O=C1NCc2c1c1c(c3[nH]c4ccccc4c23)C(C2(O)CCN(Cc3ccccc3)CC2)c2ccccc2-1 (stereo not drawn) [II-02] |  |
| 8 nM | 2200 nM | 4 (4=76-100%) | 4 (4=76-100%) | COc1ccc2c(c1)C(C1(CO)CCCO1)c1c-2c2c(c3c1[nH]c1ccccc13)CNC2=O (stereo not drawn) [II-53] | IC50 [1]: 209 nM |
| 44 nM | 1530 nM | 1 (1=1-25%) | 3 (3=50-75%) | CC1(C)COC(=O)C1(O)C1c2ccccc2-c2c3c(c4c([nH]c5ccccc54)c21)CNC3=O (stereo not drawn) [II-47] |  |

| SMILES | IC50 [3] | IC50 [4] | Cell Score @ 100 nM (percent decrease in trk protein band) [5] | Cell Score @ 1 uM (percent decrease in trk protein band) [5] | also measured |
| --- | --- | --- | --- | --- | --- |
| COCCOCc1ccc2c(c1)c1c3c(c4c(c1n2CC1CO1)Cc1ccccc1-4)C(=O)NC3 (racemic) [II-61] |  | 1360 nM |  |  |  |
| O=C1NCc2c1c1c(c3[nH]c4ccccc4c23)C(C2(O)CCCO2)c2ccccc2-1 (stereo not drawn) [II-42] | 149 nM | 6230 nM |  |  | IC50 [1]: 1390 nM |
| CC1(C2c3ccccc3-c3c4c(c5c([nH]c6ccccc65)c32)CNC4=O)CCCO1 (racemic) [II-04] | 8 nM | > 10000 nM | 1 (1=1-25%) | 2 (2=26-49%) |  |
